From doi:10.1101/2020.12.17.423306v1 (biorxiv, 2020)

How the values were obtained:
OsHSL1 = target: T1, OsHSL1 (Oryza sativa, UniProt A0A7G1K9G4); experiment: HPLC of TFT conversion; format: biochemical
T1 sequence (A0A7G1K9G4 1-350): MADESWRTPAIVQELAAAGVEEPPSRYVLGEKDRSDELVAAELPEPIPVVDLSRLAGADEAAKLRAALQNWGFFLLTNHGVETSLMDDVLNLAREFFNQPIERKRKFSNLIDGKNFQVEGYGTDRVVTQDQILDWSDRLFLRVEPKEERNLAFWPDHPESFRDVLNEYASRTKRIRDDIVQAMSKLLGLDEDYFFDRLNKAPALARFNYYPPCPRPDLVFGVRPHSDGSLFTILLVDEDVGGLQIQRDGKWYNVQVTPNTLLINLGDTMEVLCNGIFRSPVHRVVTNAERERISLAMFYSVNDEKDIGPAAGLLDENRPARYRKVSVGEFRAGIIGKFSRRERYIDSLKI

HIS1 = target: T2, HIS1 (Oryza sativa, UniProt A0A7G1K8F5); experiment: HPLC of BBC-OH hydroxylation; format: biochemical
T2 sequence (A0A7G1K8F5 1-351): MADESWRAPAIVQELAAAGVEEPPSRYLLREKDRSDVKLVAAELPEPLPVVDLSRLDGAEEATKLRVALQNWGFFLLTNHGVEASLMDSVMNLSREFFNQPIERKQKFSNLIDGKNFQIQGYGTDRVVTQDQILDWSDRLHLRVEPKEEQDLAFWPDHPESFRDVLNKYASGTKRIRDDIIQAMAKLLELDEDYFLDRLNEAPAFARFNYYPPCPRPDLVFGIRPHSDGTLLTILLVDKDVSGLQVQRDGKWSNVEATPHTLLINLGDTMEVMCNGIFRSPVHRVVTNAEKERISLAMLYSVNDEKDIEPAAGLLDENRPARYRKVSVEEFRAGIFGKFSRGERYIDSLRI

| IC50 (OsHSL1) [µM] | IC50 (HIS1) [µM] | Compound |
| --- | --- | --- |
| ~125 |  | CCOC(=O)C1CC(=O)C(=C(O)C2CC2)C(=O)C1 (centres unmarked) [TE, ethyl-(3-oxido-4-cyclopropionyl-5-oxo) oxo-3-cyclohexenecarboxylate] |
|  | 50 | CCC(=O)C1C(=O)CC(C(=O)O)CC1=O (centres unmarked) [prohexadione, 3,5-dioxo-4-propionylcyclohexanecarboxylic acid] |
